Literature values, collected in PMC6985722 (Antimicrobial Agents and Chemotherapy, 2020).

Key:
RSV = tested on: RSV; design: method as in ref 21 = [21]; 21. Hanfelt-Goade D , Maimon N , Nimer A , Riviere F , Catherinot E , Ison M , Jeong SH , Walsh E , Gafter-Gvili A , Nama SR , Napora P , Chowers M , Bergeron A , Zeltser D , Moudgil H , Limaye AP , C; conditions: hospitalized RSV-infected adults treated relatively late; cited from earlier work
[1] = cited from earlier work

Row | SMILES | Viral load and clinical outcomes (RSV) | Terminal half-life [1] [h]
1 | Cc1cn2nc([C@@H]3CCCCN3C(=O)c3cc(Cl)ccc3NS(C)(=O)=O)cc2nc1N1CC[C@H](N)C1 [GS-5806] | failed to significantly reduce the viral load or improve clinical outcomes | 
2 | CC(C)C(=O)OC[C@@]1(CCl)O[C@@H](n2ccc(N)nc2=O)[C@H](F)[C@@H]1OC(=O)C(C)C [ALS-008176] |  | 63
